Assay results as given in patent publication US20230147993A1, “THIOPHENE COMPOUNDS WITH CYCLIC AMIDES, AND USES THEREOF” (Capulus Therapeutics, LLC, priority 2019, published 2023).
Where two headings read alike, the source gives them in different places.

Key:
[1] = test system: SREBP; experiment: Reporter Screening Assay (SRE-luciferase reporter, HepG2); format: cell-based; conditions: SREBPv1 Reporter cell line HepG2, 24 hours, 0.01 uM to 10 uM, read-out: I: Reporter Screening Assay (Ave EC50 (nM))
Description: Reporter Screening Assay: This assay was used to evaluate the effect on transcriptional activity SREBP of selected compounds using an SRE-luciferase reporter construct. On day 1, 10,000 cells were seeded in a 96 well (white) plate as per the plate map in Growth media without antibiotics. Cells were incubated at 37° C. for 8 hours. After 8 hours, cells were washed with DPBS for complete removal of FBS. DPBS was completely removed and Growth media was replaced with phenol free treatment medium (90 μl) with different FBS concentrations. The cells were then incubated at 37° C. for 24 hours with varying doses (0.01 uM to 10 uM) of compounds. Then a Luciferase assay was performed.
Reagents for performing Luciferase assay were stored at −20° C. To a tube of lyophilized assay substrate was added 1 mL Substrate Solvent and mixed well. The Substrate tube after reconstitution was covered with aluminum foil so as to keep it protected from light. The assay buffer was thawed to room temperature. To 20 mL Assay Buffer was added 200 µL of reconstituted 100× Substrate and mixed well. The reconstituted substrate as well as the assay solution (buffer + substrate) was protected from light throughout the procedure by keeping it covered with aluminum foil. Using a multi-channel pipette, 100 μL Assay Solution (buffer + substrate) was added directly to each sample well in Plate 1, which was incubated for 30 min (plate was covered with aluminum foil). After 30 min incubation, the plate was read for total luminescence. Each well was read for 2 seconds in a plate luminometer. (Microplate reader Envision Microplate reader from Perkin Elmer). Precaution was taken to incubate plate exactly for 30 min prior to reading on the plate reader.
Reporter Assay Materials: SREBPv1 Reporter cell line: HepG2-#32251. Growth Medium: MEM (Corning 10-010), 10% FBS, 1% GlutaMax (Invitrogen Catalog #35050061), […] (Invitrogen Catalog #A1113803) and 1% Penicillin-Streptomycin (Pen-Strep). Treatment Media: Phenol-free MEM (Invitrogen Catalog #51200-038) and 1% GlutaMax (Invitrogen Catalog #35050061). Luciferase Assay: LightSwitch Luciferase Assay Kit (Catalog #32032). LDH assay: Pierce LDH Cytotoxicity Assay Kit (Catalog #SD249616).

[2] = Stability in mouse liver microsomes; format: in vitro ADME
Description: (§1) Half-life Human Microsomes: Compounds were evaluated for stability in human liver microsomes. A 10 mM stock solution of the compound being evaluated was prepared in DMSO and diluted with water:acetonitrile (1:1) to a concentration of 1 mM. A working concentration of 100 μM was prepared by further dilution with water:acetonitrile (1:1). To make the preincubation mixture, 2.5 μL of the diluted compound was combined with 75 μL of human liver microsomes at 3.33 mg/mL, and 85 μL of 100 mM potassium phosphate buffer, and this mixture was pre-incubated for 10 min at 37° C. To make the 60 minute mixture without cofactor, 32.5 μL of the preincubation mixture was combined with 17.5 μL of 100 mM potassium phosphate buffer and incubated for 60 min at 37° C. To make the 0 min sample with cofactor (NADPH), 16.25 μL of the preincubation mixture was combined with 200 μL of acetonitrile containing internal standard and 8.75 μL of cofactor (NADPH). To make the incubation mixture, 62 μL of cofactor (2.85 mM) was combined with the remaining incubation mixture, and incubated for 60 min at 37° C. To prepare the sample mixture to be evaluated, 25 μL incubation mixture was combined with 200 μL of acetonitrile containing internal standard and vortexed for 5 min at 1200 rpm, then centrifuged for 10 min at 4000 rpm. The supernatant was diluted 2 fold with water and injected on LC-MS/MS. The sample mixture was evaluated by LC-MS/MS using 10 mM ammonium acetate with 0.1% FA as the aqueous mobile phase, and methanol as the organic mobile phase.
Half-life Mouse Microsomes: Compounds were evaluated in mouse liver microsomes following a similar procedure as described above for human liver microsomes. A similar procedure could be used to evaluate compounds in rat liver microsomes.

[3] = Stability in human liver microsomes; format: in vitro ADME; conditions: 60 min at 37° C., NADPH
Description: as §1

[4] = test system: ACACA; experiment: Gene expression in HepG2 cells (qPCR), ACACA; format: cell-based; conditions: for 48 hours, normalized to β-Actin, relative to mock or vehicle treated cells (ΔΔCT)
Description: Gene Expression: The effect of selected compounds on the gene expression of HepG2 cells was evaluated. HepG2 cells (P2) were seeded in 24 well plate (80,000 cells/well) for RNA extraction and in a 96 well plate (10,000 cells/well) for Cell Titer Glow (CTG). The media used was DMEM and contained 10% FBS. Each compound was evaluated at […] for 48 hours. Two biological replicates per experimental group were evaluated for RNA. For gene analysis, RNA was harvested with RNEasy kit and 20-100 ng used to synthesize cDNA with random primers. Quantitative PCR was performed on 1 pg to 100 ng cDNA for the following genes: ACACA, ACLY, FASN, LSS, PNPLA3. Gene expression levels were normalized with housekeeping gene, β-Actin, and relative expression levels determined using ΔΔCT method comparing treated to mock or vehicle treated cells as a baseline. “Total” gene expression refers to the average of the values of the 5 genes listed above.

| Compound | EC50 ([1]; Homo sapiens) [nM] | percent remaining after 60 min in mouse liver microsomes [2] | percent remaining after 60 min in human liver microsomes [3] | A: ACACA, effect of compounds on gene expression of HepG2 cells [4] | EC50 [1] [nM] |
| --- | --- | --- | --- | --- | --- |
| CC(C)(O)COc1cc(-c2csc(-c3ccc(C(=O)N4CCC(O)CC4)cc3Cl)c2)ccn1 [Compound I-1629101, (3-chloro-4-(4-(2-(2-hydroxy-2-methylpropoxy)pyridin-4-yl)thiophen-2-yl)phenyl)(4-hydroxypiperidin-1-yl)methanone] | > 500 | +++ (≥60.1 = +++) | +++ (≥60.1 = +++) | – | – |
| O=C(c1ccc(-c2cc(-c3ccnc4c3OCCN4)cs2)c(Cl)c1)N1CCC(O)CC1 [Compound I-1629067, (3-chloro-4-(4-(3,4-dihydro-2H-pyrido[3,2-b][1,4]oxazin-8-yl)thiophen-2-yl)phenyl)(4-hydroxypiperidin-1-yl)methanone] | < 249 | + (0-30 = +) | + (0-30 = +) | ++ (0.31-0.7509 = ++) | – |
| O=C(c1ccc(-c2cc(-c3ccnc(OC4COC4)c3)cs2)c(Cl)c1)N1CCC(O)CC1 [Compound I-1629100, (3-chloro-4-(4-(2-(oxetan-3-yloxy)pyridin-4-yl)thiophen-2-yl)phenyl)(4-hydroxypiperidin-1-yl)methanone] | > 500 | +++ (≥60.1 = +++) | +++ (≥60.1 = +++) | – | – |
| O=C(c1ccc(-c2cc(-c3ccnc4c3OCCO4)cs2)c(Cl)c1)N1CCC(O)CC1 [Compound I-1629066, (3-chloro-4-(4-(2,3-dihydro-[1,4]dioxino[2,3-b]pyridin-8-yl)thiophen-2-yl)phenyl)(4-hydroxypiperidin-1-yl)methanone] | < 249 | ++ (30.1-60 = ++) | ++ (30.1-60 = ++) | ++ (0.31-0.7509 = ++) | – |
| O=C(c1ccc(-c2cc(-c3ccnc(OC4CC4)c3)cs2)c(Cl)c1)N1CCC(O)CC1 [Compound I-1629059, (3-chloro-4-(4-(2-cyclopropoxypyridin-4-yl)thiophen-2-yl)phenyl)(4-hydroxypiperidin-1-yl)methanone] | < 249 | +++ (≥60.1 = +++) | +++ (≥60.1 = +++) | ++ (0.31-0.7509 = ++) | – |
| CC(C)[C@H](N)C(=O)OCC1(c2cc(-c3csc(-c4ccc(C(=O)N5CCC(O)CC5)cc4Cl)c3)ccn2)CC1 [Compound I-1629123, (l-(4-(5-(2-chloro-4-(4-hydroxypiperidine-1-carbonyl)phenyl)thiophen-3-yl)pyridin-2-yl)cyclopropyl)methyl L-valinate] | – | – | – | – | < 249 |
| CC(C)[C@H](N)C(=O)OC1CCN(C(=O)c2ccc(-c3cc(-c4ccnc(C5(CO)CC5)c4)cs3)c(Cl)c2)CC1 [Compound I-1629122, 1-(3-chloro-4-(4-(2-(1-(hydroxymethyl)cyclopropyl)pyridin-4-yl)thiophen-2-yl)benzoyl)piperidin-4-yl L-valinate] | < 249 | – | – | – | – |
| O=C(c1ccc(-c2cc(-c3ccnc(C4(CO)CC4)c3)cs2)c(Cl)c1)N1CC[C@H](O)[C@@H](F)C1 [Compound I-1629121, (3-chloro-4-(4-(2-(l-(hydroxymethyl)cyclopropyl)pyridin-4-yl)thiophen-2-yl)phenyl)((3S,4S)-3-fluoro-4-hydroxypiperidin-1-yl)methanone] | < 249 | +++ (≥60.1 = +++) | – | – | – |
| O=C(c1ccc(-c2cc(-c3ccnc(OCC4CC(O)C4)c3)cs2)c(Cl)c1)N1CCC(O)CC1 (stereo not shown) [Compound I-1629118, (3-chloro-4-(4-(2-((3-hydroxycyclobutyl)methoxy)pyridin-4-yl)thiophen-2-yl)phenyl)(4-hydroxypiperidin-1-yl)methanone] | < 249 | +++ (≥60.1 = +++) | +++ (≥60.1 = +++) | – | – |
| O=C(c1ccc(-c2cc(-c3ccnc(C4(CO)CCC4)c3)cs2)c(Cl)c1)N1CCC(O)CC1 [Compound I-1629089, (3-chloro-4-(4-(2-(1-(hydroxymethyl)cyclobutyl)pyridin-4-yl)thiophen-2-yl)phenyl)(4-hydroxypiperidin-1-yl)methanone] | > 500 | +++ (≥60.1 = +++) | + (0-30 = +) | – | – |
| O=C(c1ccc(-c2cc(-c3ccnc4c3OCC(CO)O4)cs2)c(Cl)c1)N1CCC(O)CC1 (racemic) [Compound I-1629181, (3-chloro-4-(4-(3-(hydroxymethyl)-2,3-dihydro-[1,4]dioxino[2,3-b]pyridin-8-yl)thiophen-2-yl)phenyl)(4-hydroxypiperidin-1-yl)methanone] | < 249 | – | – | – | – |
| O=C(c1ccc(-c2cc(-c3ccnc(OC4CC(O)C4)c3)cs2)c(Cl)c1)N1CCC(O)CC1 (stereo not shown) [Compound I-1629124, (3-chloro-4-(4-(2-(3-hydroxycyclobutoxy)pyridin-4-yl)thiophen-2-yl)phenyl)(4-hydroxypiperidin-1-yl)methanone] | < 249 | +++ (≥60.1 = +++) | – | – | – |
| O=C(c1ccc(-c2cc(-c3ccnc(O[C@@H]4CO[C@H]5[C@@H]4OC[C@H]5O)c3)cs2)c(Cl)c1)N1CCC(O)CC1 [Compound I-1629106, (3-chloro-4-(4-(2-(((3R,3aR,6R,6aR)-6-hydroxyhexahydrofuro [3,2-b]furan-3-yl)oxy)pyridin-4-yl)thiophen-2-yl)phenyl)(4-hydroxypiperidin-1-yl)methanone] | < 249 | +++ (≥60.1 = +++) | +++ (≥60.1 = +++) | – | – |
| O=C(c1ccc(-c2cc(-c3ccnc(OC4CC(CO)C4)c3)cs2)c(Cl)c1)N1CCC(O)CC1 (stereo not shown) [Compound I-1629110, (3-chloro-4-(4-(2-(3-(hydroxymethyl)cyclobutoxy)pyridin-4-yl)thiophen-2-yl)phenyl)(4-hydroxypiperidin-1-yl)methanone] | < 249 | +++ (≥60.1 = +++) | +++ (≥60.1 = +++) | – | – |
